Source: the CheMixHub viscosity set

Experiment: xn = mol fraction of the nth substance listed

CCCCCCCC + CCCO
Conditions	viscosity [mPa·s]
293.15 K, 101.3 kPa, x2 = 0.2756	0.602
293.15 K, 101.3 kPa, x2 = 0.4165	0.699
293.15 K, 101.3 kPa, x2 = 0.5351	0.825
293.15 K, 101.3 kPa, x2 = 0.6355	0.967
293.15 K, 101.3 kPa, x2 = 0.6822	1.039
293.15 K, 101.3 kPa, x2 = 0.7221	1.128
293.15 K, 101.3 kPa, x2 = 0.7934	1.295
293.15 K, 101.3 kPa, x2 = 0.8726	1.545
293.15 K, 101.3 kPa, x2 = 0.9243	1.746
293.15 K, 101.3 kPa, x2 = 0.9752	2.003
298.15 K, 101.3 kPa, x2 = 0.114	0.511
298.15 K, 101.3 kPa, x2 = 0.2756	0.561
298.15 K, 101.3 kPa, x2 = 0.4165	0.645
298.15 K, 101.3 kPa, x2 = 0.5351	0.752
298.15 K, 101.3 kPa, x2 = 0.6356	0.875
298.15 K, 101.3 kPa, x2 = 0.6823	0.939
298.15 K, 101.3 kPa, x2 = 0.7221	1.016
298.15 K, 101.3 kPa, x2 = 0.7934	1.162
298.15 K, 101.3 kPa, x2 = 0.8726	1.403
298.15 K, 101.3 kPa, x2 = 0.9243	1.554
298.15 K, 101.3 kPa, x2 = 0.9752	1.79
298.15 K, 101.33 kPa, x2 = 0.1018	0.535
298.15 K, 101.33 kPa, x2 = 0.1778	0.558
298.15 K, 101.33 kPa, x2 = 0.3151	0.617
298.15 K, 101.33 kPa, x2 = 0.4271	0.696
298.15 K, 101.33 kPa, x2 = 0.5512	0.809
298.15 K, 101.33 kPa, x2 = 0.6801	0.987
298.15 K, 101.33 kPa, x2 = 0.7955	1.227
298.15 K, 101.33 kPa, x2 = 0.9677	1.824
303.15 K, 101.3 kPa, x2 = 0.114	0.482
303.15 K, 101.3 kPa, x2 = 0.2756	0.522
303.15 K, 101.3 kPa, x2 = 0.4165	0.592
303.15 K, 101.3 kPa, x2 = 0.5351	0.686
303.15 K, 101.3 kPa, x2 = 0.6355	0.795
303.15 K, 101.3 kPa, x2 = 0.6822	0.857
303.15 K, 101.3 kPa, x2 = 0.7221	0.917
303.15 K, 101.3 kPa, x2 = 0.7934	1.045
303.15 K, 101.3 kPa, x2 = 0.8726	1.227
303.15 K, 101.3 kPa, x2 = 0.9243	1.383
303.15 K, 101.3 kPa, x2 = 0.9752	1.579
308.15 K, 101.3 kPa, x2 = 0.0417	0.458
308.15 K, 101.3 kPa, x2 = 0.1389	0.466
308.15 K, 101.3 kPa, x2 = 0.2682	0.497
308.15 K, 101.3 kPa, x2 = 0.3477	0.528
308.15 K, 101.3 kPa, x2 = 0.4105	0.558
308.15 K, 101.3 kPa, x2 = 0.4648	0.591
308.15 K, 101.3 kPa, x2 = 0.525	0.636
308.15 K, 101.3 kPa, x2 = 0.5911	0.694
308.15 K, 101.3 kPa, x2 = 0.6512	0.757
308.15 K, 101.3 kPa, x2 = 0.7011	0.818
308.15 K, 101.3 kPa, x2 = 0.7397	0.873
308.15 K, 101.3 kPa, x2 = 0.7864	0.95
308.15 K, 101.3 kPa, x2 = 0.8382	1.05
308.15 K, 101.3 kPa, x2 = 0.8827	1.153
308.15 K, 101.3 kPa, x2 = 0.9289	1.279

CC12CC3CC(C)(C1)CC(C)(C3)C2 + CCCCCCCCC
viscosity [mPa·s], 100 kPa
Conditions	x1 = 0.1012	x1 = 0.2132	x1 = 0.3009	x1 = 0.3978	x1 = 0.4998	x1 = 0.6007	x1 = 0.6969	x1 = 0.7984	x1 = 0.8985
293.15 K	0.831	0.936	1.021	1.11	1.231	1.395	1.593	1.852	2.201
298.15 K	0.775	0.87	0.95	1.028	1.135	1.282	1.458	1.685	1.995
303.15 K	0.726	0.812	0.883	0.952	1.052	1.183	1.342	1.544	1.818
308.15 K	0.682	0.76	0.825	0.889	0.978	1.095	1.238	1.418	1.662
313.15 K	0.639	0.711	0.771	0.831	0.914	1.022	1.147	1.309	1.526
318.15 K	0.603	0.67	0.724	0.781	0.859	0.954	1.067	1.212	1.408
323.15 K	0.569	0.633	0.681	0.737	0.807	0.894	0.996	1.13	1.304

ClC(Cl)=C(Cl)Cl + C1COCCO1
303.15 K, 101.33 kPa
Conditions	viscosity [mPa·s]
x2 = 0.0711	0.8321
x2 = 0.1527	0.8661
x2 = 0.2465	0.8991
x2 = 0.3656	0.9331
x2 = 0.4126	0.9447
x2 = 0.5332	0.9725
x2 = 0.6532	0.9982
x2 = 0.7921	1.03
x2 = 0.8937	1.055
x2 = 0.9581	1.074

CC(C)CCl + CC(C)(C)O
viscosity [mPa·s], 101.33 kPa
Conditions	x1 = 0.0982	x1 = 0.2011	x1 = 0.3047	x1 = 0.4029	x1 = 0.5031	x1 = 0.6023	x1 = 0.6979	x1 = 0.7997	x1 = 0.8948
298.15 K	2.345	1.477	1.065	0.8424	0.6988	0.604	0.5388	0.4863	0.3827
313.15 K	1.359	0.9661	0.7571	0.6303	0.5423	0.481	0.437	0.4053	0.3751
